Numbers after ± are expanded uncertainties.
Assay: xn = mol fraction of the nth substance listed
Conditions: 100 kPa, Liquid; for mass density: Vibrating tube method; for viscosity: Capillary tube (Ostwald / Ubbelohde) method

O=C1CCCO1 [γ-butyrolactone] + C[S+](C)[O-]
Conditions	mass density, 293.15 K [kg/m3]	mass density, 298.15 K [kg/m3]	mass density, 303.15 K [kg/m3]	mass density, 313.15 K [kg/m3]	viscosity, 298.15 K [mPa·s]
x2 = 0	1129.4 ± 1	1124.5 ± 1	1119.6 ± 1	1109.8 ± 1	1.72 ± 0.024
x2 = 0.051	1127.5 ± 1.1	1122.6 ± 1.1	1117.7 ± 1.1	1107.9 ± 1.1	–
x2 = 0.098	1125.9 ± 1.1	1121 ± 1.1	1116.1 ± 1.1	1106.3 ± 1.1	1.724 ± 0.024
x2 = 0.152	1124 ± 1.1	1119.1 ± 1.1	1114.2 ± 1.1	1104.4 ± 1.1	–
x2 = 0.221	1121.7 ± 1.1	1116.8 ± 1.1	1111.9 ± 1.1	1102.1 ± 1.1	1.724 ± 0.024
x2 = 0.251	1120.7 ± 1.1	1115.7 ± 1.1	1110.8 ± 1.1	1101 ± 1	–
x2 = 0.298	1119.1 ± 1.1	1114.2 ± 1.1	1109.3 ± 1.1	1099.5 ± 1	1.724 ± 0.024
x2 = 0.352	1117.4 ± 1.1	1112.5 ± 1.1	1107.6 ± 1.1	1097.8 ± 1	–
x2 = 0.398	1116 ± 1.1	1111 ± 1.1	1106.1 ± 1	1096.3 ± 1	1.739 ± 0.024
x2 = 0.447	1114.5 ± 1.1	1109.6 ± 1	1104.7 ± 1	1094.8 ± 1	–
x2 = 0.498	1113 ± 1	1108 ± 1	1103.1 ± 1	1093.3 ± 1	1.763 ± 0.024
x2 = 0.546	1111.6 ± 1	1106.6 ± 1	1101.7 ± 1	1091.9 ± 1	–
x2 = 0.596	1110.2 ± 1	1105.2 ± 1	1100.3 ± 1	1090.4 ± 1	1.791 ± 0.024
x2 = 0.648	1108.7 ± 1	1103.8 ± 1	1098.8 ± 1	1089 ± 1	–
x2 = 0.7	1107.4 ± 1	1102.4 ± 1	1097.4 ± 1	1087.6 ± 1	1.839 ± 0.024
x2 = 0.742	1106.3 ± 1	1101.3 ± 1	1096.4 ± 1	1086.4 ± 1	–
x2 = 0.797	1104.9 ± 1	1099.9 ± 1	1094.9 ± 1	1085 ± 1	1.883 ± 0.025
x2 = 0.848	1103.6 ± 1	1098.7 ± 1	1093.7 ± 1	1083.7 ± 1	–
x2 = 0.9	1102.4 ± 1	1097.4 ± 1	1092.4 ± 1	1082.5 ± 1	1.921 ± 0.025
x2 = 0.95	1101.3 ± 1	1096.3 ± 1	1091.3 ± 1	1081.3 ± 1	–

From the NIST ThermoML archive (doi:10.1016/j.jct.2017.02.009)
